Test results taken from article PMC7507959, “A Structure-Based Mechanism for DNA Entry into the Cohesin Ring” (Molecular Cell, 2020).

B2: Psc3 (natural protein, fission yeast (S. pombe), UniProt O13816 1-962, looked up)
chain: MSESVTTGSDDDGGDRESSPVMLSQSFDPMSSSSNSSSEENSDDDYEKTISSKKRHPRPNSKGVNVKRSRRNAIVEEDPQEEIFNNLFAFLLDQKVDTMDIAVSWFADYAKDNQSALANLINFILKCCGCNRAINVFDVQDQDSASATLSQIQLSVERTSTRDYPLNSKNLKFRNFRKRLTGLLSNFVSQLSIRNYLYNSTVFEDIMSWVVAMSSSTMRPIRHTATVFCLNIMTFLCEKSKELLNEHAIATKQLEKEEKRSRVNRNRINELNNSLGEIVKQQDTLTTYLNDYFDSVFVHRYRDVEPKIRVDCLQELGVWINTVPSIFFSGSYLRYLGWMLSDINTTVRLTVVKVLRKFFETDSFIGGLRHFSSRFKERILEMSCVDADIGVRVASIRLCNAMRTCGFLENSEILKVLKLILDINPRVQREAVLFLCKVVDESVNEKIDLWGEEDYILKAFSQTSLTTFSVHWIKFSQMCKLLEEVRLSYQSSFDYDTLLRIFQKNGNFITPITQALLNACEIDSIYQSWEDISNFVLFDNYTSTLKDPIDSILSFCKLNDFQESILLQLLSASIQTVCNNNFITPKTVHNKQAAETTNDQNKDKDLLYLNLLPYINSITERNSASPTLLHDSLRLLFSMDLTEMTDPQLSRHFELLINNLKKFFLTNNDLQIIQGCTILFLRLDSIPALKEDLKLLVTDICDQTVTEFLKNFGSFNIQDAVITKDEFVIFEACLTRIEGCTSLKDFSDYPEFDIIYERLVSLLSRVPNSYEDTLKFSAINTLQSLLFWFFLRKDNPADEEKKKDDETKVFNCLINIMNNDSSKILQLQAARTFLETVIMKEGVKASHYNDDNRVSEEHNFLKPQFLDALLKILEGWLYTYAKVGQFPFKRLTQASSPHTQISLDKNPLNRRLLEHVCCDLTSKLLIVVSLSNTITPEFSQQFCELRGHYGPKLSAIVDEFLN
notes: Psc3 (Scc3/STAG1/2), HEAT repeat subunit of fission yeast cohesin; Subunit of the wild-type tetramer; constructs from Murayama and Uhlmann, 2014; also called Psc3^Scc3/STAG1/2; Scc3; source: budding yeast (W303 background), galactose-induced, purified as part of the cohesin tetramer

Experiments:
[1] = molecular target: T1, fission yeast cohesin (Psm1-Psm3-Rad21-Psc3) with Mis4-Ssl3 loader (Schizosaccharomyces pombe, UniProt O42649+O94383, O42649:E1126Q/O94383:E1161Q); assay: FRET between SNAP/CLIP-labelled ATPase heads; type: binding; conditions: hydrolysis-deficient EQ-cohesin; 0.5 mM ATP, Mis4-Ssl3, DNA, 1 mM MgCl2, pH 7.5, 32 °C
T1 construct: tetramer expressed in budding yeast (W303); Mis4-Ssl3 expressed in fission yeast; FRET rows carry SNAP on Psm1 and CLIP on Psm3 C termini; with Cohesin subunit rad21; Cohesin subunit psc3; Sister chromatid cohesion protein mis4; MAU2 chromatid cohesion factor homolog ssl3

[2] = molecular target: T2, fission yeast cohesin (Psm1-Psm3-Rad21-Psc3) with Mis4-Ssl3 loader (Schizosaccharomyces pombe, UniProt O42649+O94383); assay: ATP hydrolysis, [gamma-33P]-ATP thin layer chromatography; type: biochemical; conditions: 0.25 mM ATP, Mis4-Ssl3, pBluescript dsDNA, 32 °C
T2 construct: tetramer expressed in budding yeast (W303); Mis4-Ssl3 expressed in fission yeast; FRET rows carry SNAP on Psm1 and CLIP on Psm3 C termini; with Cohesin subunit rad21; Cohesin subunit psc3; Sister chromatid cohesion protein mis4; MAU2 chromatid cohesion factor homolog ssl3

[3] = molecular target: T3, N17-cohesin with Mis4-Ssl3 loader (Schizosaccharomyces pombe, UniProt O42649+O94383); assay: as above; type: biochemical; conditions: 0.25 mM ATP, Mis4-Ssl3, pBluescript dsDNA, 32 °C
T3 construct: gene psm1; as P1 but Rad21 lacks amino acids 1-17 (residues 18-646); expressed in budding yeast; with Cohesin subunit rad21; Cohesin subunit psc3; Sister chromatid cohesion protein mis4; MAU2 chromatid cohesion factor homolog ssl3
T3 sequence (O94383 whole entry, one chain of several, the tested form may be a part): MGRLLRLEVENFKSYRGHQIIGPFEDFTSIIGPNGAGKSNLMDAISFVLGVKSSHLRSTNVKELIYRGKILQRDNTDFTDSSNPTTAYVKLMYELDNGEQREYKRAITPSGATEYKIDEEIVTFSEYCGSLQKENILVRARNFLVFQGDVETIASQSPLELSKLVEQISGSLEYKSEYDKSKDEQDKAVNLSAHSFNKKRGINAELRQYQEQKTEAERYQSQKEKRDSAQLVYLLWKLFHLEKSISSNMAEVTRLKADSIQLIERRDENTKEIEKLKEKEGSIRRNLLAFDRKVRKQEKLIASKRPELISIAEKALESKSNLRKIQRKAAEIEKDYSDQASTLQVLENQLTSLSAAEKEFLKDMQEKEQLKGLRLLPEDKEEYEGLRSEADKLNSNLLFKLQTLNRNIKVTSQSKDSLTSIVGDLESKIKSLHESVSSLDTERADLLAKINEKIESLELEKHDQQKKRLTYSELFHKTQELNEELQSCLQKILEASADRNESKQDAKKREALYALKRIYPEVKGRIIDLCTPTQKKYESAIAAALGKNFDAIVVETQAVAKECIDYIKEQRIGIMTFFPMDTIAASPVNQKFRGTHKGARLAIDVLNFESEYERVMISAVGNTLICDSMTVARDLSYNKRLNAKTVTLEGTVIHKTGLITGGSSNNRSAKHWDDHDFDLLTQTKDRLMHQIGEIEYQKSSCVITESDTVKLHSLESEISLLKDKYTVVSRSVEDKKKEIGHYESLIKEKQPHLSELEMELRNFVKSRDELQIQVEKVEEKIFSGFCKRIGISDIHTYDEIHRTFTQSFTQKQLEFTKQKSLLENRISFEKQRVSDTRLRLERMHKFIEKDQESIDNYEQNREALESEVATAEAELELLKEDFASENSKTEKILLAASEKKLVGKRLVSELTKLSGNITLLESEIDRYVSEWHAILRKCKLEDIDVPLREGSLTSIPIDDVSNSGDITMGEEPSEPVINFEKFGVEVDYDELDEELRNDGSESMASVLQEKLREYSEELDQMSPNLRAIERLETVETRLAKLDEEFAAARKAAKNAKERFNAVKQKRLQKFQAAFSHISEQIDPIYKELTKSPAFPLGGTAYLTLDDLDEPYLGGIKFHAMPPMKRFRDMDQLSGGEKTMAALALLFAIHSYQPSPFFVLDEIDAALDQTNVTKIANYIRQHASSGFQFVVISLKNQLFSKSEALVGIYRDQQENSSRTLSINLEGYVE
T3 sequence (O42649 whole entry, one chain of several, the tested form may be a part): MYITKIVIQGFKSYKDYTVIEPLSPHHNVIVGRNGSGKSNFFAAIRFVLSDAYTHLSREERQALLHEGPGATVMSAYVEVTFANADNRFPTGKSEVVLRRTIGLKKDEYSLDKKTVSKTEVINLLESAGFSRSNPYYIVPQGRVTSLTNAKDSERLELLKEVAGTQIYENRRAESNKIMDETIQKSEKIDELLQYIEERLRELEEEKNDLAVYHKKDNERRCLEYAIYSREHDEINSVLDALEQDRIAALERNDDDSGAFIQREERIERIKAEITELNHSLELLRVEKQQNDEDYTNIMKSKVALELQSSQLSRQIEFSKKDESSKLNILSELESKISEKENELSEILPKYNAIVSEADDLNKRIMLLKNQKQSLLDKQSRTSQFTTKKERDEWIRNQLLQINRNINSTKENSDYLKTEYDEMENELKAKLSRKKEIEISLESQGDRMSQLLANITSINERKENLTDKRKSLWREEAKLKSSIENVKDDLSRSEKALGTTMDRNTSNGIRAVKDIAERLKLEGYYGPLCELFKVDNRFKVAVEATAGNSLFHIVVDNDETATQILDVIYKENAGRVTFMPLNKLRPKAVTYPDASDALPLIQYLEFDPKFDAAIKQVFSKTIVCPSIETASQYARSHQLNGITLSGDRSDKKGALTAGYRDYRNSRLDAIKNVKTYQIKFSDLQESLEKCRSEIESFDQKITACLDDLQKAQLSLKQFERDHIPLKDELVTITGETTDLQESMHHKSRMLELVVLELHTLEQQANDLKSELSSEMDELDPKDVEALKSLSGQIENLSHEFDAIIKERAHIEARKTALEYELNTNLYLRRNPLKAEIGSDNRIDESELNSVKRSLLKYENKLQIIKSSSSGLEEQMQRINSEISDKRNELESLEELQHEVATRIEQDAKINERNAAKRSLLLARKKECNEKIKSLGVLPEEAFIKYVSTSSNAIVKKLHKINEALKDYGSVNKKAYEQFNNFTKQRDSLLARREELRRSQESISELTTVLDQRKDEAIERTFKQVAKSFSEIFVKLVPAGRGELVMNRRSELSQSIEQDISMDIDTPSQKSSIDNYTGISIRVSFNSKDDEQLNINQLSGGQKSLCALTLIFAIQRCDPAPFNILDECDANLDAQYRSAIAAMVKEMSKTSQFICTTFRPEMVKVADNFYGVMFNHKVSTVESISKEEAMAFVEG
T3 sequence (P30776 18-628 partner, one chain of several): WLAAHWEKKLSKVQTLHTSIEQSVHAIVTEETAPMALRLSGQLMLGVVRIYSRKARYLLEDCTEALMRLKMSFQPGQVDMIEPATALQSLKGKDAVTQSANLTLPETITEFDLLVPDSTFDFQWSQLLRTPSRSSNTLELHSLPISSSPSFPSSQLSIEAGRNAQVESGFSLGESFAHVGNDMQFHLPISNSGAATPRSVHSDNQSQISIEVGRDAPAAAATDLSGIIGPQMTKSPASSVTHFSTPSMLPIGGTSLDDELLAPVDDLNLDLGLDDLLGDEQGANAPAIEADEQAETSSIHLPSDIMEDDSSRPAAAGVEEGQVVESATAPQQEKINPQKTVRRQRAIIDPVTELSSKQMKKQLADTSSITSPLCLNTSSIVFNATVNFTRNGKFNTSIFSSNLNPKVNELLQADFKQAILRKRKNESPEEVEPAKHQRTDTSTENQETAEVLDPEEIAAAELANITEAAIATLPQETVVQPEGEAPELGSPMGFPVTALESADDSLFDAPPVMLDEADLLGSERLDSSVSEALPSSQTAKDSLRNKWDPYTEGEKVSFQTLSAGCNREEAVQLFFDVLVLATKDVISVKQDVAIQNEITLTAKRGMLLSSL
T3 sequence (Q09725 whole entry partner, one chain of several, the tested form may be a part): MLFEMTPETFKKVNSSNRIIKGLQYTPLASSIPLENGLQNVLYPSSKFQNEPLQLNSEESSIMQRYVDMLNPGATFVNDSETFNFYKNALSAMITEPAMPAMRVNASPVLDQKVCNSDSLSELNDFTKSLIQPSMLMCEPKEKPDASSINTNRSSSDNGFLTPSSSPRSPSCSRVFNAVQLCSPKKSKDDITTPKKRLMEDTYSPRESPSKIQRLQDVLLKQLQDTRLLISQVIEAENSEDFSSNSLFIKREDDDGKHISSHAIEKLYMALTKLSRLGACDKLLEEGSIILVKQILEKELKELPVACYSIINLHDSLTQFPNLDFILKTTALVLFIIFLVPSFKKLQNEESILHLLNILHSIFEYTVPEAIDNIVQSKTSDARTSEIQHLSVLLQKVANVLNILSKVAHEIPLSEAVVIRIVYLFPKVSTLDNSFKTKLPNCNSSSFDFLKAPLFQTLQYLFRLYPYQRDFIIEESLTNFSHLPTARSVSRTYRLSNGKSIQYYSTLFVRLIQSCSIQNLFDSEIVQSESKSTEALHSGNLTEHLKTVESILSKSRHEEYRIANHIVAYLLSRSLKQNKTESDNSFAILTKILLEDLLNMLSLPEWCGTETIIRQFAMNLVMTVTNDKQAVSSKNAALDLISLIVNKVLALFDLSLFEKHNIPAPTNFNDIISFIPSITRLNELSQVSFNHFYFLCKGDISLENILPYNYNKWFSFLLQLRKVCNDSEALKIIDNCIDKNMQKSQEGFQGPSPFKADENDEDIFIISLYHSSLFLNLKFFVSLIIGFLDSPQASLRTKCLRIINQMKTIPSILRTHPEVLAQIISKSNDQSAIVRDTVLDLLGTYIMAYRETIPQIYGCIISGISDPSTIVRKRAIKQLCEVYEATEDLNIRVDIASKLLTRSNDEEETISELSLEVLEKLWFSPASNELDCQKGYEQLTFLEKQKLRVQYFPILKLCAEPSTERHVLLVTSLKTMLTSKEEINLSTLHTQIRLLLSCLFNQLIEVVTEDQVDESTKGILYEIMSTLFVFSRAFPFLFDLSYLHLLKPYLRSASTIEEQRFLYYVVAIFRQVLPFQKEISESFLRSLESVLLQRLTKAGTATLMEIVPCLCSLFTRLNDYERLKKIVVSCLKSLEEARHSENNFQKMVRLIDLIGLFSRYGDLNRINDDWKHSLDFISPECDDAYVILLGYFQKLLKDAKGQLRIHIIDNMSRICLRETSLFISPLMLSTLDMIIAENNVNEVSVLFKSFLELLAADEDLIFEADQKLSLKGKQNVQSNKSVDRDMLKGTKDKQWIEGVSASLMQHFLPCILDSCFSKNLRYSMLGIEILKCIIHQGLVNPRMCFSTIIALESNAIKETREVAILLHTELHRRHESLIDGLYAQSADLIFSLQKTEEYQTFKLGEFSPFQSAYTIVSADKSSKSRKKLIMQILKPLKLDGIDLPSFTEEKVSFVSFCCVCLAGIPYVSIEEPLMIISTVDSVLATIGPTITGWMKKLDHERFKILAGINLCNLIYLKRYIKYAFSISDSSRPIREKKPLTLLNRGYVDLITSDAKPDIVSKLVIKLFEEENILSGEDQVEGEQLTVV

[4] = molecular target: B2; assay: cross-linking; SDA (NHS-diazirine) UV crosslinking with mass spectrometry (CLMS), gripping state: 200 nM cohesin, 200 nM Mis4-Ssl3, 200 nM 125 bp dsDNA, 0.5 mM ADP and 0.5 mM BeSO4 + 10 mM NaF, 32°C 20 min; conditions: both partners purified
[5] = molecular target: T4, Mis4 (fission yeast (S. pombe), UniProt Q09725 1-1587); assay: as above; conditions: both partners purified
T4 construct: Mis4 (Scc2/NIPBL), fission yeast cohesin loader; Used as the Mis4-Ssl3 complex; construct from Murayama and Uhlmann, 2014; also called Mis4^Scc2/NIPBL; cohesin loader; source: fission yeast, thiamine-repressible expression, purified as Mis4-Ssl3
T4 sequence (Q09725 whole entry): as the sequence (Q09725 whole entry partner, one chain of several, the tested form may be a part) above

## Nc1ncnc2c1ncn2[C@@H]1O[C@H](COP(=O)(O)OP(=O)(O)OP(=O)(O)O)[C@@H](O)[C@H]1O [ATP]
[1]
  FRET between SNAP/CLIP-labelled ATPase heads: the presence of all three components—the loader, DNA, and ATP—resulted in a marked FRET increase
[2]
  ATP hydrolysis, [gamma-33P]-ATP thin layer chromatography: loader-stimulated ATP hydrolysis were equal when using wild-type or N17-cohesin
[3]
  ATP hydrolysis, [gamma-33P]-ATP thin layer chromatography: loader-stimulated ATP hydrolysis were equal when using wild-type or N17-cohesin

B1: Ssl3 (natural protein, fission yeast (S. pombe), UniProt O94459 1-559, looked up)
chain: MTGLNETDARILVTSRHLFLWPLAETYFKNAEKVLQDCGVCDSFGRLLSTGLQCLYSVLMDTKMEPRVELLTRKRICEVLLSHTVEYADVEAILNRALIIAEQHNLTEYKFSLQLLLSRVFCRTSPKAAKVLLTRCVREAEEYAKVAEIYHSNNQSNPHRWVYEFLLATLEFQNVSQVANSIHNYANHHKHQHLQLLAMILNQSLPMDEISTDSDQISILCLVTQIAQCLRKGEILLAREILPKIHSKLESETFVWPSSYIDFFIDDTSKISIKWMSINQLYLLIYLISGFCYISDSTSGRASRFLQEGLRITGDFKHQERCVLEYLESQKWINNITKDMKYYLIATYLSRSRLSKAERILQSTEDDQTGFLGILKGMYLQKRGDLKKAEVHYRETAKNFSFRTDTFIISTLNLINILEDSAAASRCLESIEPLCNKHEKKIFKLWLLVLKVIREGPQVHQSNVLPRVIQQSSEYANTQLQYISLTELSERFGKLEHAEKMAISALELAKKSKDELWCLISGRILEDFYRSVQKYDKMRQQALENSAYSKLIEDIYSFV
notes: Ssl3 (Scc4/MAU2), small subunit of the fission yeast cohesin loader; Used as the Mis4-Ssl3 complex; construct (plasmid pSsl3) from Murayama and Uhlmann, 2014; also called Ssl3^Scc4/MAU2; Scc4; source: fission yeast, thiamine-repressible expression, purified as Mis4-Ssl3
[4]
  binding result: binds

## B2
[5]
  binding result: binds
